Measured values taken from patent US7098241B2, “Thiophene hydroxamic acid derivatives” (Hoffmann-La Roche Inc., priority 2002, dated 2006).

Tests used:
[1] = biological target: T1, recombinant HDAC-1 (Homo sapiens, UniProt Q13547); assay: HDAC biochemical quench assay; settings: recombinant HDAC-1 purified from HEK 293 cells, 1 uM peptide substrate, 90 min at room temperature
T1 construct: made in house; host or cells: HEK 293 cells
Excerpt: The function of histone deacetylase (HDAC) is the deacetylation of lysines in e.g. histone H4. A peptide of 17 amino acids derived from histone H4 was labeled with TAMRA at the C-terminus and QSY-7 at the N-terminus and was used as a substrate (TAMRA-first17 aa of histone H4-QSY7). Following deacetylation by HDAC, the enzyme Lys C is able to cleave the peptide after lysine. […] Inhibition of HDAC by compounds results in low signals because Lys C could not cleave the substrate and the quench effect persists.
For dose response curves, 10 concentrations were diluted 1:3 starting at 30 uM. 10 ul compound dilution were put into each well of a 384 well plate. 10 ul HDAC were added (recombinant HDAC-1 purified from HEK 293 cells; enzyme activity has to be assessed for each preparation). 10 ul peptide substrate was added (1 uM final concentration, derived from 1 mM stock solution diluted 1:1000 in test buffer). After 90 min incubation at room temperature, the reaction was stopped by addition of 20 ul test buffer including 3 ug/ml Lys C and 0.075% SDS. After overnight incubation the fluorescence signal of TAMRA was measured (Victor 2 from Wallac, absorption 544 nm, emission 590 nm). The O.D. of DMSO-treated control wells is 100%, the % inhibition of compound treated wells is calculated in relation to 100%. Based on 10 concentrations a IC50 curve is generated by using XL.fit3.
Test buffer used: a mixture of 10 mM Hepes pH8, 10 mM NaCl, 10% Glycerol, 0.005% Triton X100, 0.1 mM EDTA, 0.1 mM TCEP. As plates were used 384 well plates (black, Greiner, 781077).

[2] = tested on: HT-29 cells (human colon carcinoma cell line); assay: MTT anti-proliferation assay on HT-29 cells; format: cell-based; settings: Homo sapiens, 120 h, 384 well plates, 5 days, read-out: IC50 HT29 384
Excerpt: MTT (3-(4,5-dimethylthiazol-2-yl)-2,5-diphenyl tetrazolium bromide) is widely used for the quantitative determination of cytotoxic effects or in vitro chemosensitivity of tumor cells. The assay is based on the cleavage of the yellow tetrazolium salt (MTT) to purple formazan crystals by metabolic active cells. For details, see Rubinstein, L. V., et al., J. Natl. Cancer Inst. 82 (1990) 1113.
We proceeded as follows: HT-29 cells (human colon carcinoma cell line) were cultivated in RPMI 1640, 2.5% FCS, 2 mM glutamine, 100 u/ml penicillin, 100 ug/ml streptomycin. For the assay the cells were seeded in 384 well plates, 900 cells per well, in the same medium. At the next day, the compounds (dissolved 10 mM in DMSO) were added in various concentrations ranging from 30 uM to 1.5 nM. After 5 days, the MTT assay was done mainly according to the instructions of the manufacturer (Cell proliferation kit I, MTT, from Roche Molecular Biochemicals). In brief: MTT labeling reagent was added to a final concentration of 0.5 mg/ml, added and incubated for 4 hrs at 37° C., 5% CO2. During this incubation time purple formazan crystals are formed. After addition of the solubilization solution (20% SDS in 0.02 M HCl) the plates were incubated overnight at 37° C., 5% CO2. After careful mixing, the plates were measured in Victor 2 (scanning multiwell spectrophotometer, Wallac) at 550 nm.
A decrease in number of living cells results in a decrease in the total metabolic activity in the sample. The decrease directly correlates to the amount of purple color resulting from the solubilization of the purple formazan crystals. Determination of IC50 was done using XL-fit.

T1 sequence (Q13547 whole entry, species assumed): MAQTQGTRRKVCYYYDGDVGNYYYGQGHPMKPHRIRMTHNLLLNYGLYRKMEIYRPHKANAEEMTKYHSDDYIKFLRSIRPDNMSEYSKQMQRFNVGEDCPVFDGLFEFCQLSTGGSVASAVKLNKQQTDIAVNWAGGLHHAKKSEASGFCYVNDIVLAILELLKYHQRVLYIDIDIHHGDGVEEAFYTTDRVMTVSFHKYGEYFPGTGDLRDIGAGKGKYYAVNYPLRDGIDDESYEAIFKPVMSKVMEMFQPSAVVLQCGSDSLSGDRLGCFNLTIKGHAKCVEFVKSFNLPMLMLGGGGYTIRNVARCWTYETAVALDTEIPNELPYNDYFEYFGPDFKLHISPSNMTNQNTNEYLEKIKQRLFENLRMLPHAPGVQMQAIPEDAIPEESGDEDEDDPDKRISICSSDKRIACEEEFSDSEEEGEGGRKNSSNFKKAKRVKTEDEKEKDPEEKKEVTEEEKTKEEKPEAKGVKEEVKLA

Compound | IC50 [1] | IC50 [2]
C[C@H](NC(=O)c1ccc(C(=O)NO)s1)c1ccc(C(F)(F)F)cc1 [Example 10d, (S)-thiophene-2,5-dicarboxylic acid 2-hydroxyamide 5-{[1-(4-trifluoromethyl-phenyl)-ethyl]-amide}] | 0.00269 µM | 0.35 µM
C[C@H](NC(=O)c1ccc(C(=O)NO)s1)c1ccc(C(C)(C)C)cc1 [Example 10e, (S)-thiophene-2,5-dicarboxylic acid 2-{[1-(4-tert-butyl-phenyl)-ethyl]-amide}5-hydroxyamide] | 0.00139 µM | 0.58 µM
O=C(NO)c1ccc(C(=O)N[C@@H](Cc2ccccc2)c2ccccc2)s1 [Example 10f, (S)-thiophene-2,5-dicarboxylic acid 2-[(1,2-diphenyl-ethyl)-amide]5-hydroxyamide] | 0.00058 µM | 0.04 µM
